For 16 compounds, EC50 and Ki results are on record in PubChem BioAssay AID2036 (NMMLSC, 2009).

Each structure is given as a SMILES string. Activity calls are given as the source filed them. How the calls were made is not given here.

One test has as its target Ras-related protein Rab7, wildtype (dog). Put plainly: extra analogs blocking nucleotide binding to Rab7 – biochemical, additional analogs, wildtype, multiplex bead flow cytometry, SAR follow-up (AID 2036). The note with it: Rab7 GTP binding.
Turning to `O=C1N=c2ccccc2=C1c1[nH]c(=O)[nH]c1O`, the EC50 entry is “inactive”.
Still for that read-out and setting: in the case of `O=Nc1c(-c2c(O)[nH]c3ccc(Br)cc23)[nH]c2ccccc12` it was “inactive”; in that of `O=Nc1c(-c2c(O)[nH]c3ccccc23)[nH]c2ccccc12`, “inactive”; in that of `O=C1C(c2c(O)[nH]c3c(Br)cccc23)=Nc2ccccc21`, “inactive”.
Consider `O=C1C(c2c(O)[nH]c3c(Cl)cccc23)=Nc2ccccc21`, for which the EC50 entry is “inactive”.
Still for that read-out and setting: in the case of `O=C1C(c2c(O)[nH]c3c(F)cccc23)=Nc2ccccc21` it was “inactive”.
As to `O=Nc1c(-c2c(O)[nH]c3c(Br)cccc23)[nH]c2ccccc12`, the EC50 result was “inactive”.
On the same count and under the same terms, then `O=C1C(c2c(O)[nH]c3ccccc23)=Nc2ccccc21`, with “inactive”; and `O=C1N=c2ccccc2=C1c1[nH]c(=S)[nH]c1O`, with “inactive”.
Same read-out and setting: in the case of `O=Nc1c(-c2c(O)[nH]c3c(F)cccc23)[nH]c2ccccc12` it was “inactive”; in that of `O=Nc1c(-c2c(O)[nH]c3c(Cl)cccc23)[nH]c2ccccc12`, “inactive”; in that of `O=C1C(c2c(O)[nH]c3ccc(Br)cc23)=Nc2ccccc21`, “inactive”.

Still in this test, the particulars now being: Rab7 GTP binding, measured here: Ki from EC50.
The term Ki denotes the equilibrium dissociation constant of an inhibitor or competing ligand from its target. Regarding `COc1cc(-c2c(C#N)c(N)n(S(=O)(=O)c3c(C(C)C)cc(C(C)C)cc3C(C)C)c2C(=O)c2ccccc2)cc(OC)c1OC`, the Ki is 2.17 µM.
Same read-out and setting: then `CSc1ccc(/C=C2/C(C)=C(CC(=O)O)c3cc(F)ccc32)cc1`, with 2.7 µM; and `CC(C)Cc1ccc([C@H](C)C(=O)O)cc1`, with 0.31 µM.
On the same count and under the same terms, then `O=C1C(c2c(O)[nH]c3c(F)cccc23)=Nc2ccccc21`, with 1.56 µM; and `COc1ccc(S(=O)(=O)n2c(N)c(C#N)c(-c3cncc(Br)c3)c2C(=O)c2ccccc2)cc1`, with 0.54 µM.
As for `O=C1N=c2ccccc2=C1c1[nH]c(=S)[nH]c1O`, the Ki turned out to be 0.87 µM.
